System: 292921-168-R-J2-PDC complex spheroid viability
Assay: Anticancer human tumor 292921-168-R-J2-PDC patient-derived pancreatic carcinoma cell line growth inhibition
Settings: for IC50: curve of first compound; for viability, T/C: stronger effect = lower value
Description: Multicellular complex tumor spheroid response to LSD1 Inhibitor Iadademstat in combination with a variety of drugs and investigational agents in selected tumor cell lines
The current study was undertaken to assess response to LSD1 inhibitors in combination with standard-of-care drugs and investigational agents in solid tumor complex spheroid models as well as in the K-562 leukemia. Complex spheroids include a stromal component modeled by human endothelial cells (HUVEC) and fibroblasts modeled by human mesenchymal stem cells (MSCs). The concentration ranges selected for each drug and investigational agent were based upon clinically achievable concentrations if the clinical Cmax of the agent was known.
Compounds. The drugs and investigational agents used in this study are listed on Table 1. All of the agents used, including staurosporine (NSC755774) and gemcitabine (NSC613327), were obtained from the Developmental Therapeutics Program, NCI. FDA-approved anticancer drugs are available from the NCI at http://dtp.nci.nih.gov/branches/dscb/oncology_drugset_explanation.html. Drugs and investigational agents were >95% pure by proton nuclear magnetic resonance (NMR) and liquid chromatography/mass spectrometry (LC/MS). Stock solutions were prepared at 400x in DMSO, stored at -70 degrees C, and diluted in fresh medium prior to their use. The final concentration of DMSO in cell culture wells never exceeded 0.25% (v/v). The FDA-approved anticancer drug set is available from the Developmental Therapeutics Program at https://dtp.cancer.gov/organization/dscb/obtaining/available_plates.htm. All drugs and investigational agents were tested over a range starting from a high concentration at or near the clinical Cmax and decreasing in half-log increments. If the clinical Cmax for an agent had not been determined, the highest concentration tested was 10 microM.
Cell Lines. The patient-derived cancer cell (PDC) lines: 292921-168-R-J2-PDC, K24384-001-R-PDC, and 521955-158-R2-J5-PDC pancreatic carcinomas, 556581-035-R-J1 ovarian carcinoma, 324938-238-R-J1-PDC, 855422-203-R-J1-PDC and 883617-216-R-J1-PDC urothelial bladder carcinomas, 743489-274-T-PDC renal cell carcinoma, 138582-R-J1 Merkel cell tumor, K60290-347-R-J1 and K57222-313-R-J1-PDC glioblastomas, 653999-131-R-J2-PDC, LG0703-F948-PDC, and 349418-098-R-PDC non-small cell lung carcinomas, 885512-296-R-J2-PDC, 171881-019-R-J1-PDC breast carcinomas and 186277-243-T-J2-PDC and 233499-124-R-J2-PDC colon carcinomas were obtained from the NCI Patient-Derived Models Repository (PDMR, https://pdmr.cancer.gov). The established cell lines NCI/ADR-RES (RRID:CVCL_14520 and OVCAR-5 (RRID:CVCL_1628) ovarian carcinomas, 786-O (RRID:CVCL_1051) and A498 (RRID:CVCL_A498) renal cell carcinoma, NCI-H211 (ATCC, cat. CRL-5824; RRID:CVCL_1529), NCI-H196 (ATCC, cat. CRL-5823, RRID:CVCL_1509), SW 1271 (ATCC, cat. CRL-2177, RRID:CVCL_1716) and NCI-H1876 (ATCC, cat. CRL-5902, RRID:CVCL_1503) small cell lung carcinomas, MDA-MB-231 (RRID:CVCL_0062) and MDA-MB-468 (RRID:CVCL_0419)breast carcinomas (10-12). Pooled donor human umbilical vein endothelial cells (HUVEC, Lonza, cat. CC-2519) and human mesenchymal stem cells (hMSC, Lonza, cat. PT-2501) were purchased from Lonza (Walkersville, MD).
Cell Culture. All cells were maintained in an incubator at 37 degrees C and 5% CO2 with 95% humidity. The PDC lines were cultured according to standard operating procedures established by the NCI PDMR (https://pdmr.cancer.gov). Briefly all PDCs were thawed and cultured in Matrigel-coated flasks prepared with a working solution of 1X Ham's F-12 nutrient mix, without supplementation (Invitrogen, Waltham, MA, cat. 11765054), 100 U/mL penicillin-streptomycin (Invitrogen, cat. 15140122), and 2.5% Matrigel (Corning Inc., Corning, NY, cat. 354248) for the first three passages. […]

[1] = second compound 0.1 µM, first compound 0.000949 µM
[2] = second compound 0.1 µM, first compound 0.003 µM
[3] = second compound 0.1 µM, first compound 0.00949 µM
[4] = second compound 0.1 µM, first compound 0.03 µM
[5] = second compound 0.1 µM, first compound 0.0949 µM
[6] = second compound 0.1 µM, first compound 0.3 µM
[7] = second compound 0.316 µM, first compound 0.000949 µM
[8] = second compound 0.316 µM, first compound 0.003 µM
[9] = second compound 0.316 µM, first compound 0.00949 µM
[10] = second compound 0.316 µM, first compound 0.03 µM
[11] = second compound 0.316 µM, first compound 0.0949 µM
[12] = second compound 0.316 µM, first compound 0.3 µM
[13] = second compound 1 µM, first compound 0.000949 µM
[14] = second compound 1 µM, first compound 0.003 µM
[15] = second compound 1 µM, first compound 0.00949 µM
[16] = second compound 1 µM, first compound 0.03 µM
[17] = second compound 1 µM, first compound 0.0949 µM
[18] = second compound 1 µM, first compound 0.3 µM
[19] = second compound 3.16 µM, first compound 0.000949 µM
[20] = second compound 3.16 µM, first compound 0.003 µM
[21] = second compound 3.16 µM, first compound 0.00949 µM
[22] = second compound 3.16 µM, first compound 0.03 µM
[23] = second compound 3.16 µM, first compound 0.0949 µM
[24] = second compound 3.16 µM, first compound 0.3 µM
[25] = second compound 10 µM, first compound 0.000949 µM
[26] = second compound 10 µM, first compound 0.003 µM
[27] = second compound 10 µM, first compound 0.00949 µM
[28] = second compound 10 µM, first compound 0.03 µM
[29] = second compound 10 µM, first compound 0.0949 µM
[30] = second compound 10 µM, first compound 0.3 µM
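Also: seven day compound exposure before luminescent viability read.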
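For viability, T/C in this document: 100% = DMSO vehicle control wells.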

CCc1c2c(nc3ccc(O)cc13)-c1cc3c(c(=O)n1C2)COC(=O)[C@]3(O)CC + NC1CC1c1ccc(-c2cccc(O)c2)cc1
IC50 (second compound 0.1 µM): < 0.949 nM
IC50 (second compound 0.316 µM): < 0.949 nM
IC50 (second compound 1 µM): < 0.949 nM
IC50 (second compound 3.16 µM): < 0.949 nM
IC50 (second compound 10 µM): < 0.949 nM
viability, T/C [1]: 4.87%
viability, T/C [2]: 2.64%
viability, T/C [3]: 1.33%
viability, T/C [4]: 1.09%
viability, T/C [5]: 0.85%
viability, T/C [6]: 1.26%
viability, T/C [7]: 4.37%
viability, T/C [8]: 2.24%
viability, T/C [9]: 1.21%
viability, T/C [10]: 0.88%
viability, T/C [11]: 1.1%
viability, T/C [12]: 1.26%
viability, T/C [13]: 4.54%
viability, T/C [14]: 2.69%
viability, T/C [15]: 1.23%
viability, T/C [16]: 1.12%
viability, T/C [17]: 1.21%
viability, T/C [18]: 1.22%
viability, T/C [19]: 4.42%
viability, T/C [20]: 2.55%
viability, T/C [21]: 1.18%
viability, T/C [22]: 0.79%
viability, T/C [23]: 1.06%
viability, T/C [24]: 1.13%
viability, T/C [25]: 5.79%
viability, T/C [26]: 3.19%
viability, T/C [27]: 1.1%
viability, T/C [28]: 1.82%
viability, T/C [29]: 2.43%
viability, T/C [30]: 1.15%

Nc1ccn(C2OC(CO)C(O)C2(F)F)c(=O)n1 (stereo not given) + NC1CC1c1ccc(-c2cccc(O)c2)cc1
IC50 (second compound 0.1 µM): < 0.949 nM
IC50 (second compound 0.316 µM): < 0.949 nM
IC50 (second compound 1 µM): < 0.949 nM
IC50 (second compound 3.16 µM): < 0.949 nM
IC50 (second compound 10 µM): < 0.949 nM
viability, T/C [1]: 29.5%
viability, T/C [2]: 10.6%
viability, T/C [3]: 6.54%
viability, T/C [4]: 5.59%
viability, T/C [5]: 7.33%
viability, T/C [6]: 5.81%
viability, T/C [7]: 30.2%
viability, T/C [8]: 9.61%
viability, T/C [9]: 4.8%
viability, T/C [10]: 5.72%
viability, T/C [11]: 5.73%
viability, T/C [12]: 5.51%
viability, T/C [13]: 27%
viability, T/C [14]: 8.35%
viability, T/C [15]: 5.25%
viability, T/C [16]: 5.86%
viability, T/C [17]: 5.98%
viability, T/C [18]: 6.01%
viability, T/C [19]: 27.8%
viability, T/C [20]: 10%
viability, T/C [21]: 5.33%
viability, T/C [22]: 6.76%
viability, T/C [23]: 5.59%
viability, T/C [24]: 6.51%
viability, T/C [25]: 28.4%
viability, T/C [26]: 11.2%
viability, T/C [27]: 7.89%
viability, T/C [28]: 7.46%
viability, T/C [29]: 7.74%
viability, T/C [30]: 7.58%

O=C(c1cc(Cc2n[nH]c(=O)c3ccccc23)ccc1F)N1CCN(C(=O)C2CC2)CC1 + NC1CC1c1ccc(-c2cccc(O)c2)cc1
IC50 (second compound 0.1 µM): 4420 nM
IC50 (second compound 0.316 µM): 2650 nM
IC50 (second compound 1 µM): 2180 nM
IC50 (second compound 3.16 µM): 1390 nM
IC50 (second compound 10 µM): 278 nM
viability, T/C (second compound 0.1 µM, first compound 0.0316 µM): 89.5%
viability, T/C (second compound 0.1 µM, first compound 0.1 µM): 104%
viability, T/C (second compound 0.1 µM, first compound 0.316 µM): 78.8%
viability, T/C (second compound 0.1 µM, first compound 1 µM): 74.3%
viability, T/C (second compound 0.1 µM, first compound 3.16 µM): 58.1%
viability, T/C (second compound 0.1 µM, first compound 10 µM): 33.1%
viability, T/C (second compound 0.316 µM, first compound 0.0316 µM): 75%
viability, T/C (second compound 0.316 µM, first compound 0.1 µM): 67.8%
viability, T/C (second compound 0.316 µM, first compound 0.316 µM): 67%
viability, T/C (second compound 0.316 µM, first compound 1 µM): 68.9%
viability, T/C (second compound 0.316 µM, first compound 3.16 µM): 46.6%
viability, T/C (second compound 0.316 µM, first compound 10 µM): 31.2%
viability, T/C (second compound 1 µM, first compound 0.0316 µM): 60.1%
viability, T/C (second compound 1 µM, first compound 0.1 µM): 69.2%
viability, T/C (second compound 1 µM, first compound 0.316 µM): 64.5%
viability, T/C (second compound 1 µM, first compound 1 µM): 64.5%
viability, T/C (second compound 1 µM, first compound 3.16 µM): 43.1%
viability, T/C (second compound 1 µM, first compound 10 µM): 32.3%
viability, T/C (second compound 3.16 µM, first compound 0.0316 µM): 64.5%
viability, T/C (second compound 3.16 µM, first compound 0.1 µM): 60.1%
viability, T/C (second compound 3.16 µM, first compound 0.316 µM): 63%
viability, T/C (second compound 3.16 µM, first compound 1 µM): 54.1%
viability, T/C (second compound 3.16 µM, first compound 3.16 µM): 39%
viability, T/C (second compound 3.16 µM, first compound 10 µM): 32.8%
viability, T/C (second compound 10 µM, first compound 0.0316 µM): 61.3%
viability, T/C (second compound 10 µM, first compound 0.1 µM): 51.2%
viability, T/C (second compound 10 µM, first compound 0.316 µM): 53.6%
viability, T/C (second compound 10 µM, first compound 1 µM): 42.2%
viability, T/C (second compound 10 µM, first compound 3.16 µM): 34%
viability, T/C (second compound 10 µM, first compound 10 µM): 29.6%

Reference: PubChem BioAssay AID1918934 (Molecular Pharmacology Branch, DTP, NCI, 2023)
